Laboratory results reported in patent US20120115724A1, “METHOD OF CONTROLLING UNDESIRED VEGETATION” (SYNGENTA CROP PROTECTION LLC, priority 2009, published 2012).

How the values were obtained:
Format in all cases: in vivo
GALAP Galium aparine [1] = experiment: Post-emergence crop and weed test (Example 15); settings: 360 h, after 15 days, read-out: Percentage damage GALAP
How it was run: (§1)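 Plants grown 14 days in glasshouse pots (22/16 °C day/night, 16 h light, 65% humidity) were sprayed post-emergence with compound formulated as a 5% stock in acetone/Emulsogen EL/NMP/DPG-monoethyl ether, diluted in water with 0.2% X-77. Damage was scored after 15 days (0 = none, 100 = total).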

[2] = test system: AMARE Amaranthus retroflexus; experiment: Post-emergence crop and weed test (Example 15); settings: 360 h, after 15 days, read-out: Percentage damage AMARE
How it was run: as §1

[3] = test system: POLCO Polygonum convolvulus; experiment: Post-emergence crop and weed test (Example 15); settings: Fallopia convolvulus, 360 h, after 15 days, read-out: Percentage damage POLCO
How it was run: as §1

SINAR Sinapis arvensis [4] = experiment: Post-emergence crop and weed test (Example 15); settings: Mutarda arvensis, 360 h, after 15 days, read-out: Percentage damage SINAR
How it was run: as §1

CHEAL Chenopodium album [5] = experiment: Post-emergence crop and weed test (Example 15); settings: 360 h, after 15 days, read-out: Percentage damage CHEAL
How it was run: as §1

VERPE Veronica persica = experiment: Post-emergence crop and weed test (Example 15); settings: 360 h, after 15 days, read-out: Percentage damage VERPE
How it was run: as §1

IPOHE Ipomoea hederacea = experiment: Pre-emergence crop and weed test (Example 16); settings: after 20 days
Protocol: (§2) Seeds of crop and representative weed species were sown in standard soil in pots. After cultivation for 1 day under controlled conditions in a glasshouse (at 22/16° C., day/night; 16 hours light; 65% humidity), the plants were sprayed. The spray solution was prepared by dissolving the technical active ingredient in acetone containing 10.56 wt % Emulsogen EL, 42.22 wt % N-methylpyrrolidone and 2.22 wt % DPG-monoethyl ether to give a 5% stock solution. This was then diluted with water containing 0.2% (v/v) of the adjuvant X-77 to give the desired treatment concentration.
(§3) The test plants were then grown on under controlled conditions in a glasshouse (at 22/16° C., day/night; 16 hours light; 65% humidity) and watered twice daily. After 20 days the test was evaluated (100=total damage to plant; 0=no damage to plant).
(§4) Species as for Post-Emergence Test.

GALAP Galium aparine [6] = experiment: Pre-emergence crop and weed test (Example 16); settings: after 20 days
Protocol: as §2, §3, §4

[7] = test system: XANST Xanthium strumarium; experiment: Pre-emergence crop and weed test (Example 16); settings: after 20 days
Protocol: as §2, §3, §4

KCHSC Kochia scoparia = experiment: Pre-emergence crop and weed test (Example 16); settings: after 20 days
Protocol: as §2, §3, §4

[8] = test system: AMARE Amaranthus retroflexus; experiment: Pre-emergence crop and weed test (Example 16); settings: after 20 days
Protocol: as §2, §3, §4

GLXMA Soybean = experiment: Pre-emergence crop and weed test (Example 16); settings: after 20 days
Protocol: as §2, §3, §4

[9] = test system: POLCO Polygonum convolvulus; experiment: Pre-emergence crop and weed test (Example 16); settings: after 20 days
Protocol: as §2, §3, §4

SINAR Sinapis arvensis [10] = experiment: Pre-emergence crop and weed test (Example 16); settings: after 20 days
Protocol: as §2, §3, §4

[11] = test system: EPHHL Euphorbia heterophylla; experiment: Pre-emergence crop and weed test (Example 16); settings: after 20 days
Protocol: as §2, §3, §4

[12] = test system: ABUTH Abutilon theophrasti; experiment: Pre-emergence crop and weed test (Example 16); settings: after 20 days
Protocol: as §2, §3, §4

CHEAL Chenopodium album [13] = experiment: Pre-emergence crop and weed test (Example 16); settings: after 20 days
Protocol: as §2, §3, §4

SIDSP Sida spinosa = experiment: Pre-emergence crop and weed test (Example 16); settings: after 20 days
Protocol: as §2, §3, §4

Structure (SMILES): C/C=C/c1c(N)nc(-c2ccc(Cl)c(OC)c2F)nc1C(=O)OC [Compound 3, (E)-4-Amino-2-(4-chloro-2-fluoro-3-methoxy-phenyl)-6-methoxy-carbonyl-5-(prop-1-enyl)-pyrimidine]
- pest or weed control at 125 g/ha (GALAP Galium aparine [1]; 125 g/ha): 70%
- pest or weed control at 125 g/ha ([2]; 125 g/ha): 100%
- pest or weed control at 125 g/ha ([3]; 125 g/ha): 90%
- pest or weed control at 125 g/ha (SINAR Sinapis arvensis [4]; 125 g/ha): 70%
- pest or weed control at 125 g/ha (CHEAL Chenopodium album [5]; 125 g/ha): 90%
- pest or weed control at 125 g/ha (VERPE Veronica persica; 125 g/ha): 80%
- Percentage damage IPOHE (IPOHE Ipomoea hederacea; 30 g/ha): 0%
- Percentage damage GALAP (GALAP Galium aparine [6]; 30 g/ha): 100%
- Percentage damage XANST ([7]; 30 g/ha): 10%
- Percentage damage KCHSC (KCHSC Kochia scoparia; 30 g/ha): 100%
- Percentage damage AMARE ([8]; 30 g/ha): 80%
- Percentage damage GLXMA (GLXMA Soybean; 30 g/ha): 0%
- Percentage damage POLCO ([9]; 30 g/ha): 50%
- Percentage damage SINAR (SINAR Sinapis arvensis [10]; 30 g/ha): 40%
- Percentage damage EPHHL ([11]; 30 g/ha): 100%
- Percentage damage ABUTH ([12]; 30 g/ha): 30%
- Percentage damage CHEAL (CHEAL Chenopodium album [13]; 30 g/ha): 100%
- Percentage damage SIDSP (SIDSP Sida spinosa; 30 g/ha): 90%

Structure (SMILES): C/C=C\c1c(N)nc(-c2ccc(Cl)c(OC)c2F)nc1C(=O)OC [Compound 4, (Z)-4-Amino-2-(4-chloro-2-fluoro-3-methoxy-phenyl)-6-methoxy-carbonyl-5-(prop-1-enyl)-pyrimidine]
- pest or weed control at 8 g/ha (GALAP Galium aparine [1]; 8 g/ha): 30%
- pest or weed control at 8 g/ha ([2]; 8 g/ha): 80%
- pest or weed control at 8 g/ha ([3]; 8 g/ha): 70%
- pest or weed control at 8 g/ha (SINAR Sinapis arvensis [4]; 8 g/ha): 60%
- pest or weed control at 8 g/ha (VERPE Veronica persica; 8 g/ha): 80%
- Percentage damage IPOHE (IPOHE Ipomoea hederacea; 125 g/ha): 50%
- Percentage damage GALAP (GALAP Galium aparine [6]; 125 g/ha): 80%
- Percentage damage XANST ([7]; 125 g/ha): 30%
- Percentage damage AMARE ([8]; 125 g/ha): 100%
- Percentage damage GLXMA (GLXMA Soybean; 125 g/ha): 10%
- Percentage damage POLCO ([9]; 125 g/ha): 20%
- Percentage damage SINAR (SINAR Sinapis arvensis [10]; 125 g/ha): 50%
- Percentage damage EPHHL ([11]; 125 g/ha): 100%
- Percentage damage ABUTH ([12]; 125 g/ha): 100%
- Percentage damage CHEAL (CHEAL Chenopodium album [13]; 125 g/ha): 40%
- Percentage damage SIDSP (SIDSP Sida spinosa; 125 g/ha): 100%

Structure (SMILES): C/C=C\c1c(N)nc(-c2ccc(Cl)c(N(C)C)c2F)nc1C(=O)OC [Compound 5, (Z)-4-Amino-2-(4-chloro-3-dimethylamino-2-fluorophenyl)-6-methoxy-carbonyl-5-(prop-1-enyl)-pyrimidine]
- pest or weed control at 30 g/ha ([2]; 30 g/ha): 90%
- pest or weed control at 30 g/ha ([3]; 30 g/ha): 90%
- pest or weed control at 30 g/ha (SINAR Sinapis arvensis [4]; 30 g/ha): 80%
- pest or weed control at 30 g/ha (CHEAL Chenopodium album [5]; 30 g/ha): 80%
- pest or weed control at 30 g/ha (VERPE Veronica persica; 30 g/ha): 60%
- Percentage damage IPOHE (IPOHE Ipomoea hederacea; 125 g/ha): 50%
- Percentage damage GALAP (GALAP Galium aparine [6]; 125 g/ha): 100%
- Percentage damage XANST ([7]; 125 g/ha): 40%
- Percentage damage KCHSC (KCHSC Kochia scoparia; 125 g/ha): 30%
- Percentage damage AMARE ([8]; 125 g/ha): 90%
- Percentage damage GLXMA (GLXMA Soybean; 125 g/ha): 0%
- Percentage damage POLCO ([9]; 125 g/ha): 0%
- Percentage damage SINAR (SINAR Sinapis arvensis [10]; 125 g/ha): 40%
- Percentage damage EPHHL ([11]; 125 g/ha): 100%
- Percentage damage ABUTH ([12]; 125 g/ha): 70%
- Percentage damage CHEAL (CHEAL Chenopodium album [13]; 125 g/ha): 100%
- Percentage damage SIDSP (SIDSP Sida spinosa; 125 g/ha): 90%
